Legend:
[1] = tested on: circulating tumor DNA (ctDNA); assay: Circulating tumor DNA sequencing in plasma of one NSCLC patient; format: in vivo, human
Protocol: Moreover, we analyzed the patient who achieved SD for 24 weeks. The patient was a person with EGFR exon 19-21 wild type, ALK negative non-small cell lung cancer (NSCLC). They had failed 1 line of platinum-based chemotherapy with a PFS of 27 months. […] The plasma of the patient was prospectively collection on the first day of cycle 1, 3, 6, whole exon sequencing of 416 genes was performed to assess circulating tumor DNA (ctDNA) with Illumina platform. […] The patient received 6-time tumor assessments, the response was classified as SD ( Figure 5E ), and the nontarget lesions remained unchanged ( Figure 5F ). However, the patient experienced tumor progression after 6 cycles of CT053PTSA administration, and which point, the target lesion enlarged.

Musk = Musk (Homo sapiens, UniProt O15146); assay: Kinase inhibition assay (LANCE or HTRF); format: biochemical; conditions: ATP at Km
Chain of Musk (O15146 24-869): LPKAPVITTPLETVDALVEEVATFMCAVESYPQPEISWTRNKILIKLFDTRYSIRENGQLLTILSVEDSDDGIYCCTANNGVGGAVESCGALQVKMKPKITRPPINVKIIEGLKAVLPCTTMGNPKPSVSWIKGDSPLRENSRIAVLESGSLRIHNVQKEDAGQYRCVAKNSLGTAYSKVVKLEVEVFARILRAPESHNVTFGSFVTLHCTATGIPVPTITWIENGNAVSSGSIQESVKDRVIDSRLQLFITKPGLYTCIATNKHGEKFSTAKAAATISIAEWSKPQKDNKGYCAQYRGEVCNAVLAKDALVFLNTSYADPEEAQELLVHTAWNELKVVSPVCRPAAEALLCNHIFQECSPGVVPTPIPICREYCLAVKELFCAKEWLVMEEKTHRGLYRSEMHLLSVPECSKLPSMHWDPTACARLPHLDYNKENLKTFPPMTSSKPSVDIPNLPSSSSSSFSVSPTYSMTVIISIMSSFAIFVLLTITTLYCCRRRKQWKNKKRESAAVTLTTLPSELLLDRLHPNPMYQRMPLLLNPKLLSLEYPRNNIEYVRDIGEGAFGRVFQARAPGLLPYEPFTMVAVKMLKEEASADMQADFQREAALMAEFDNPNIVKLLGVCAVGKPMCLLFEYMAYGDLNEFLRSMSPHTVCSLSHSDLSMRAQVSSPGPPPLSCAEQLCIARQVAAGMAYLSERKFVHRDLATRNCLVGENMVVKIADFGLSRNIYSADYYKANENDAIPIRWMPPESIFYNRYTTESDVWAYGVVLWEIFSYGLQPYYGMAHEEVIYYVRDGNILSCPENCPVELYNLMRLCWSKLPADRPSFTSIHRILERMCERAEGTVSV
Protocol: (§2) The IC50 values were determined by measuring phosphorylation of peptide substrate poly at ATP concentrations at the Km.

SNU620 = assay: Cell proliferation assay (CellTiter-Glo, 72 hours); format: cell-based; conditions: Homo sapiens, read-out: IC50 anti-proliferative
Protocol: (§3) Human gastric tumor cell lines with high MET expression levels, namely, the GTL-16, MKN45, SNU638, Hs746T, SNU-620, and SNU-5 cell lines, were used in the assay. […] Cell viability was measured after 72 hours using a CellTiter-Glo Luminescent Cell Viability Assay Kit (Promega, WI, USA) according to the manufacturer’s instructions.

NUGC-4 = assay: Cell proliferation assay (CellTiter-Glo, 72 hours); format: cell-based; conditions: Homo sapiens, read-out: IC50 anti-proliferative
Protocol: These cell lines were obtained from American Type Culture Collection (ATCC), Japanese Collection of Research Bioresources (JCRB), Shanghai Institutes of Biological Sciences, CAS (SIBS), Korean Cell Line Bank (KCLB) or National Institutes of Health (NIH). […] Cell viability was measured after 72 hours using a CellTiter-Glo Luminescent Cell Viability Assay Kit (Promega, WI, USA) according to the manufacturer’s instructions.

SNU638 = assay: Cell proliferation assay (CellTiter-Glo, 72 hours); format: cell-based; conditions: Homo sapiens, SNU-638, read-out: IC50 anti-proliferative
Protocol: as §3

Tyro3 = Tyro3 (Homo sapiens, UniProt Q06418); assay: Kinase inhibition assay (LANCE or HTRF); format: biochemical; conditions: ATP at Km
Chain of Tyro3 (Q06418 41-890): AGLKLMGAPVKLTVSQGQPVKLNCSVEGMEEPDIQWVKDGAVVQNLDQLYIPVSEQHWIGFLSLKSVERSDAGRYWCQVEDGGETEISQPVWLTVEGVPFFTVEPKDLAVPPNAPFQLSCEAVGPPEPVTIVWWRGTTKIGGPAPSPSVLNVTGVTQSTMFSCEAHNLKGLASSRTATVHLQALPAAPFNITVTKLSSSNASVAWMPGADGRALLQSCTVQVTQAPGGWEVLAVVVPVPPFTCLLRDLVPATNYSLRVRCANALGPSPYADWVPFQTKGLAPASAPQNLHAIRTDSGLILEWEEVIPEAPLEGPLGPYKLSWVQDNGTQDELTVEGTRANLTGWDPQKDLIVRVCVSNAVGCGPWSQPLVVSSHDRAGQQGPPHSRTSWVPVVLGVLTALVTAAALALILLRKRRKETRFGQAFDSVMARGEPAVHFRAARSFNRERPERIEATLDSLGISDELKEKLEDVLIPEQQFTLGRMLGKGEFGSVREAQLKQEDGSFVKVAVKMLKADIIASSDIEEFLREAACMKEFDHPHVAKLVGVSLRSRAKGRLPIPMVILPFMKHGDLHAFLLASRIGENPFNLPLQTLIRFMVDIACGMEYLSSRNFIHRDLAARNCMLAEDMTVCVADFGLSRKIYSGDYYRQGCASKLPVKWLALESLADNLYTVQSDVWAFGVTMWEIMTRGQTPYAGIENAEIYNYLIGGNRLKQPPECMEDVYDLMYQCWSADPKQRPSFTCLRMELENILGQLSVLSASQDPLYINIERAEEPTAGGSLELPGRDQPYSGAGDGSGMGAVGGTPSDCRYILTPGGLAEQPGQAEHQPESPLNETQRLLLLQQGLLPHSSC
Protocol: as §2

AXL = AXL (Homo sapiens, UniProt P30530); assay: Kinase inhibition assay (LANCE or HTRF); format: biochemical; set-up: expressing full-length human AXL (AXL-MEFs); expressed in transfected cells; host or cells: mouse embryonic fibroblasts (MEFs); conditions: ATP at Km
Chain of AXL (P30530 26-894): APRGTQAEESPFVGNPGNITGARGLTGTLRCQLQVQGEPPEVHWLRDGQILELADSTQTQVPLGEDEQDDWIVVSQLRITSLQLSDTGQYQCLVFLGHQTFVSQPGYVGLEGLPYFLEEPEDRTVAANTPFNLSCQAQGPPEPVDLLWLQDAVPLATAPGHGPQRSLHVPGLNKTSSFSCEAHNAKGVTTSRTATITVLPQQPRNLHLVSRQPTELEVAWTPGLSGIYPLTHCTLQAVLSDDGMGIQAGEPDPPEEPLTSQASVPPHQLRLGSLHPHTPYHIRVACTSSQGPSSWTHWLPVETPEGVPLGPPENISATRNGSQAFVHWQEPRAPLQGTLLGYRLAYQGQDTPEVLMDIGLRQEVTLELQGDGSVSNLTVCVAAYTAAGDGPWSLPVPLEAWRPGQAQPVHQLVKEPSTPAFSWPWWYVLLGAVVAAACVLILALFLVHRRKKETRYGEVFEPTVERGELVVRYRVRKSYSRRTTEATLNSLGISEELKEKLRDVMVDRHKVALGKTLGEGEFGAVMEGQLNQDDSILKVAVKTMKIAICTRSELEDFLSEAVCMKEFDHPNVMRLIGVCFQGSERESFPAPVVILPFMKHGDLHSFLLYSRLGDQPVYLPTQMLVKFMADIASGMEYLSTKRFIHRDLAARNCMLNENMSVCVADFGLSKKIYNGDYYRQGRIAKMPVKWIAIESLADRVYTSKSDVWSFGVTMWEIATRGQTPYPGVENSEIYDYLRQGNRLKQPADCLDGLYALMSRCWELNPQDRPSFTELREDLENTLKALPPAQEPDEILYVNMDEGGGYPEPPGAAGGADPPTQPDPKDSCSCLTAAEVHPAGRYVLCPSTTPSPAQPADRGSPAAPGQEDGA
Protocol: as §2

phosphorylation of MET = assay: Western blot of tumor lysates from GA3121 PDX model; format: in vivo, immunodeficient mice; conditions: 20 mg/kg, 21 days
Text: The SNU-5 cell line was selected for western blotting analysis of signaling molecules. […] Immunoreactive proteins (p-AXL, t-ERK and p-ERK) were visualized using the ECL system (Pierce Chemical, TX, USA). Other proteins were detected by Odyssey (LI-COR, NE, USA) at a wavelength of 700 nm or 800 nm. […] Tumor lysates were subjected to western blotting. The following antibodies were purchased from Cell Signaling Technology (Cell Signaling Technology Cat#3148, RRID : AB_1031042): anti-MET (Cell Signaling Technology Cat# 3148, RRID : AB_1031042), anti-p-MET Y1234/1235 (Antibodies-Online Cat# ABIN461461, RRID : AB_10786128), anti-AXL (Cell Signaling Technology Cat# 4566, RRID : AB_2062563), anti-p-AXL Y702 (5724S), anti-ERK (9107S), anti-p-ERK Thr202/Tyr204 (4370S), anti-p-AKT Ser473 (4060S), and anti-AKT (Cell Signaling Technology Cat# 2920, RRID : AB_1147620).
(§1) Human tumor xenografts were established in female BALB/cA nude mice (5-6 weeks old) by administering the SNU-5 and MKN-45 cells, which have high MET expression levels. […] The subcutaneous tumor size and body weight were measured twice weekly. The tumor volumes were determined by measuring two perpendicular diameters with calipers and calculated as (length × width^2)/2.

GA3121 PDX xenografts = assay: In vivo efficacy study, PDX model; set-up: species or system immunodeficient mice; conditions: 20 mg/kg once per day oral gavage
Protocol: as §1, with “levels. For efficacy studies in patient-derived tumor xenograft (PDX) mouse models, MET-overexpressing GA0046 and GA3121 tumors (obtained from Crownbio, CA, USA) were established by directly implanting surgical tissues into immunodeficient mice.” for “levels.”

GA0046 PDX xenografts = assay: In vivo efficacy study, PDX model; set-up: species or system immunodeficient mice
Protocol: as §1, with “levels. For efficacy studies in patient-derived tumor xenograft (PDX) mouse models, MET-overexpressing GA0046 and GA3121 tumors (obtained from Crownbio, CA, USA) were established by directly implanting surgical tissues into immunodeficient mice.” for “levels.”

MKN74 = assay: Cell proliferation assay (CellTiter-Glo, 72 hours); format: cell-based; conditions: Homo sapiens, MKN-74, read-out: IC50 anti-proliferative

With `Cc1c(C(=O)Nc2ccc(Oc3ccnc4cc(OCC(C)(C)O)ccc34)c(F)c2)c(=O)n(-c2ccccc2)n1C` [CT053PTSA] the “ctDNA APC p.E520X (c. G1558T)” value ([1]; Cycle 1, 60 mg) was 0%, the “ctDNA AXL p. A79T (c. G235A)” value ([1]; Cycle 1, 60 mg) was 0% and the “ctDNA BRCA1 p.E344X (c. G1030T)” value ([1]; Cycle 1, 60 mg) was 0.32%. For the same compound, the “ctDNA EGFR p. F712Y (c. T2135A)” value ([1]; Cycle 1, 60 mg) was 0.12%, the “ctDNA FLT3 p.p893L (c.C2678T)” value ([1]; Cycle 1, 60 mg) was 0% and the “ctDNA FLT4 p.D998V (c.A2993T)” value ([1]; Cycle 1, 60 mg) was 0%. The “ctDNA FP300 p.Q2332X (c.C6994T)” value ([1]; Cycle 1, 60 mg) was 0.19%, the “ctDNA PALB2 p.C800X (c.T2400A)” value ([1]; Cycle 1, 60 mg) was 0% and the “ctDNA APC p.E520X (c. G1558T)” value ([1]; Cycle 3, 60 mg) was 0%. The “ctDNA AXL p. A79T (c. G235A)” value ([1]; Cycle 3, 60 mg) was 0%, the “ctDNA BRCA1 p.E344X (c. G1030T)” value ([1]; Cycle 3, 60 mg) was 0.12% and the “ctDNA EGFR p. F712Y (c. T2135A)” value ([1]; Cycle 3, 60 mg) was 0%. For the same compound, the “ctDNA FLT3 p.p893L (c.C2678T)” value ([1]; Cycle 3, 60 mg) was 0%, the “ctDNA FLT4 p.D998V (c.A2993T)” value ([1]; Cycle 3, 60 mg) was 0% and the “ctDNA FP300 p.Q2332X (c.C6994T)” value ([1]; Cycle 3, 60 mg) was 0.21%. The “ctDNA PALB2 p.C800X (c.T2400A)” value ([1]; Cycle 3, 60 mg) was 0%, the “ctDNA APC p.E520X (c. G1558T)” value ([1]; Cycle 6, 60 mg) was 0% and the “ctDNA AXL p. A79T (c. G235A)” value ([1]; Cycle 6, 60 mg) was 0%. For the same compound, the “ctDNA BRCA1 p.E344X (c. G1030T)” value ([1]; Cycle 6, 60 mg) was 0%, the “ctDNA EGFR p. F712Y (c. T2135A)” value ([1]; Cycle 6, 60 mg) was 0% and the “ctDNA FLT3 p.p893L (c.C2678T)” value ([1]; Cycle 6, 60 mg) was 0%. For the same compound, the “ctDNA FLT4 p.D998V (c.A2993T)” value ([1]; Cycle 6, 60 mg) was 0%, the “ctDNA FP300 p.Q2332X (c.C6994T)” value ([1]; Cycle 6, 60 mg) was 0% and the “ctDNA PALB2 p.C800X (c.T2400A)” value ([1]; Cycle 6, 60 mg) was 0%.

`Cc1c(C(=O)Nc2ccc(Oc3ccnc4cc(OCC(C)(C)O)ccc34)c(F)c2)c(=O)n(-c2ccccc2)n1C` [CT053] was tested, and the IC50 (Musk) was 310 nM, the IC50 (SNU620) was 60 nM and the IC50 (NUGC-4) was greater than 10000 nM. The IC50 (SNU638) was 90 nM, the IC50 (Tyro3) was 150 nM and the IC50 (AXL) was 3.4 nM. The “phosphorylation of MET in tumors vs vehicle” value (phosphorylation of MET) was “significantly inhibited”, the TGI (GA3121 PDX xenografts) was 172% and the TGI (GA0046 PDX xenografts; 3 mg/kg once per day oral gavage) was 18%. For the same compound, the TGI (GA0046 PDX xenografts; 10 mg/kg once per day oral gavage) was 57%, the TGI (GA0046 PDX xenografts; 20 mg/kg once per day oral gavage) was 75% and the IC50 (MKN74) was 6880 nM.

From PMC9632963, “Preclinical characterization and phase I clinical trial of CT053PTSA targets MET, AXL, and VEGFR2 in patients with advanced solid tumors” (Frontiers in Immunology, 2022)
